# According to publication PMC8802628, “Selective activation of PFKL suppresses the phagocytic oxidative burst” (Cell, 2021):
# Legend:
# [1] = target: T1, PFKL (Homo sapiens, UniProt P17858); experiment: Thermal inactivation assay of PFKL; assay type: biochemical; settings: 35°C; 200 μM FBP, 200 nM NA-11
# T1 construct: made in house; host or cells: Sf9 insect cells (baculovirus, Bac-to-Bac)
# T1 sequence (P17858 1-780): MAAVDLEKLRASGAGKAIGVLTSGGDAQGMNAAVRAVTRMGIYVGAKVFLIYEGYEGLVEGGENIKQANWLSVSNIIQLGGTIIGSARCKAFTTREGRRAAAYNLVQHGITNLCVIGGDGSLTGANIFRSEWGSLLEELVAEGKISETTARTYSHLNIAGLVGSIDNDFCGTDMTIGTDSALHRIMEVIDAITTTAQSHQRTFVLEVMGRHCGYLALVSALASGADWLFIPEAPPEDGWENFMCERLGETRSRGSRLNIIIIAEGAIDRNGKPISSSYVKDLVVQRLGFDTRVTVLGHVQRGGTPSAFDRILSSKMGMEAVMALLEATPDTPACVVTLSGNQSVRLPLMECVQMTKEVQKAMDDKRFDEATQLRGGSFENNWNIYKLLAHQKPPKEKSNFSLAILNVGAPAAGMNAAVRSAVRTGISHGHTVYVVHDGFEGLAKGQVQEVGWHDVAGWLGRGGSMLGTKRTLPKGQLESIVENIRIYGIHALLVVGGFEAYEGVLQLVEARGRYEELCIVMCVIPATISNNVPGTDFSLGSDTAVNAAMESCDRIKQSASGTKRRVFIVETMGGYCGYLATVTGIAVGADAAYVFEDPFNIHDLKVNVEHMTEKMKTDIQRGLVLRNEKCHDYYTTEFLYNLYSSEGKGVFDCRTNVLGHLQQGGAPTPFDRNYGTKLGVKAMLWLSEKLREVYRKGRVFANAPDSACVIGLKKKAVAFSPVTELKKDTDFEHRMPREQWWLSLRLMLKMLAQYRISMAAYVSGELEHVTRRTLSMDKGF
# Method: Thermal inactivation assays were performed as previously described for PFKP, with modifications to account for the decreased stability of PFKL ([Sánchez-Martínez et al., 2000]). PFKL was diluted to 10 ng/mL, with a final buffer composition of 53.3 mM HEPES, 100 mM KCl, 0.167 mM DTT, 83.3 μM ammonium sulfate, 0.83% glycerol, 0.170 mM ATP, and 16.7 mM EDTA. Samples were incubated at 35°C. At the times indicated, samples were removed and residual PFK1 activity measured using the PK/LDH auxiliary enzyme assay described above with 125 μM ATP and 5 mM F6P. To determine if small molecule ligands altered PFKL stability, 200 μM FBP and 200 nM NA-11 were added.
# [2] = target: T2, 14-3-3 protein eta (YWHAH) (Homo sapiens, UniProt Q04917); experiment: PISA of neutrophil lysates (Data S2); assay type: binding; settings: Comparison NA11_MidT-DMSO_MidT
# T2 construct: endogenous in cells; host or cells: human neutrophil lysate
# T2 sequence (Q04917 whole entry): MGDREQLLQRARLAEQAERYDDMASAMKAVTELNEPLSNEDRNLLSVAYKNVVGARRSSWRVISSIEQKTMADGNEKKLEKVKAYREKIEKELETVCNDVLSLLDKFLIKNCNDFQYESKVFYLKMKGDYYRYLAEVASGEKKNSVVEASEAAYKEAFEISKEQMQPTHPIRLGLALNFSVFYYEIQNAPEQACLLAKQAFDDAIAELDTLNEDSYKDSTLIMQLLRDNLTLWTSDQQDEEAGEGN
# Method: (§1) Neutrophils (3 × 10^7) were treated with 50 nM PMA for 20 min. Cell were washed twice in D-PBS, resuspended in KB buffer (25 mM Tris-HCL pH 7.5, 1 mM DTT, 10 mM MgCl2) and frozen in liquid nitrogen. Lysates were prepared by 5-7 freeze-thaw cycles in KB buffer. Protein concentration was determined via Bradford assay and lysates were incubated on ice for 30 min with either 10 μM NA-11 or DMSO vehicle. Samples were analyzed in two formats: (1) classical thermal proteome profiling (TPP) with full melting curves using 16-plex TMT labeling (8 temperatures between 37-65°C), and (2) Proteome Integral Solubility Alteration (PISA) assay with aggregated protein abundance from a defined temperature range using 10-plex TMT labeling (Five replicates 44-58°C). Aliquots (5 mg) were divided and heated at 8 temperatures in the 37-65°C range or 6 temperatures in the 44-58°C range, and cooled on ice for 3 min.
# (§2) For TPP, heated lysates from different temperatures were kept separate. For PISA, lysates from different temperatures were combined based on treatment. Samples were centrifuged at 20,000 x g for 20 min at 4°C and supernatants were isolated for analysis. Proteins were denatured in 4 M urea, reduced with 5 mM DTT at 60°C for 20 min, and alkylated with 11 mM iodoacetamide (IAA) for 20 min. Urea was diluted to 2 M with 20 mM HEPES. Proteins were digested with Lys-C (Wako) diluted 1:50 for 3 h at 37°C, and then with Trypsin (PTMScan) diluted 1:100 overnight at 37°C. Peptides were cleaned on C18 Sep-Pak cartridges, 50 mg absorbent (Waters, WAT054960) and labeled with 16-plex TMTpro or 10-plex TMT. Labeled peptides were pooled, cleaned on a C18 Sep-Pak cartridge, and fractionated by offline high pH reversed phase separation and combined into 12 fractions in checkerboard fashion. Peptides were cleared on C18 STAGE-tips before mass spectrometry.
# (§3) For the classical TPP, quantitative data from each temperature were used to generate a thermal titration curve and calculate a melting point. PSM level quantitation was log2 transformed and summarized to protein level by aggregating all PSMs from the same primary Uniprot reference, and systematic variation between the treatments was normalized at each temperature. A thermal titration curve was fitted from experimental data for each protein and for each treatment condition using Self-Starting Nls Four-Parameter Logistic Model from stats v3.6.2 in R. Melting point was calculated at the 50% between intensity at the lowest temperature and intensity at the highest temperature. A quality score is calculated for each protein by evaluating R squares, curve slopes and similarity in slopes between the two fitted curves. For the PISA experiment, quantitative data from each replicate of combined temperatures were used to calculate fold changes and p values between the treatment conditions. Quantified PSMs were normalized based on global median abundance among all PSMs, and then summarized to the protein level using statistical package MSstats_3.14.1 ([Choi et al., 2014]). Fold changes and p values were calculated between pre-defined treatment groups by the MSstats package. For the photoaffinity probe based pull-down study, pairwise differential analysis was applied to treatment groups. TMT abundance of all PSMs was aggregated to their respective proteins. Ratios between each treatment group were calculated based on their mean protein abundance from replicates and a Student’s t test was applied to each pair to calculate p values. […]
# [3] = target: T3, 14-3-3 protein epsilon (YWHAE) (Homo sapiens, UniProt P62258); experiment: PISA of neutrophil lysates (Data S2); assay type: binding; settings: Comparison NA11_MidT-DMSO_MidT
# T3 construct: endogenous in cells; host or cells: human blood leukocytes, labelled live
# T3 sequence (P62258 whole entry): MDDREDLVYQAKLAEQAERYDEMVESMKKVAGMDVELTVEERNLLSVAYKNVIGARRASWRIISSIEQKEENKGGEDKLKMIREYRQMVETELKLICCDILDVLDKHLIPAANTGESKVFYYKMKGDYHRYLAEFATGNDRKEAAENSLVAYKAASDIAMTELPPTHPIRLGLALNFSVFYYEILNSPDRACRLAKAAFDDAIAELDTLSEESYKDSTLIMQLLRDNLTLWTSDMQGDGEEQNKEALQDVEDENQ
# Method: as §1, §2, §3
# [4] = target: T4, 14-3-3 protein theta (YWHAQ) (Homo sapiens, UniProt P27348); experiment: PISA of neutrophil lysates (Data S2); assay type: binding; settings: Comparison NA11_MidT-DMSO_MidT
# T4 construct: endogenous in cells; host or cells: human neutrophil lysate
# T4 sequence (P27348 whole entry): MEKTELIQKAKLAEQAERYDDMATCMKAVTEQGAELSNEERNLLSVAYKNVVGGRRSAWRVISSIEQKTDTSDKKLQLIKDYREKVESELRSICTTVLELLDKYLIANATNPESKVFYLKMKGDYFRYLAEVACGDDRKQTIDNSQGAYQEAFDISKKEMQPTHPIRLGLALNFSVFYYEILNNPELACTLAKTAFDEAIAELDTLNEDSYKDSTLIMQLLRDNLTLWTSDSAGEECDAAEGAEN
# Method: as §1, §2, §3
# [5] = target: T5, 14-3-3 protein beta/alpha (YWHAB) (Homo sapiens, UniProt P31946); experiment: PISA of neutrophil lysates (Data S2); assay type: binding; settings: Comparison NA11_MidT-DMSO_MidT
# T5 construct: endogenous in cells; host or cells: human blood leukocytes, labelled live
# T5 sequence (P31946 whole entry): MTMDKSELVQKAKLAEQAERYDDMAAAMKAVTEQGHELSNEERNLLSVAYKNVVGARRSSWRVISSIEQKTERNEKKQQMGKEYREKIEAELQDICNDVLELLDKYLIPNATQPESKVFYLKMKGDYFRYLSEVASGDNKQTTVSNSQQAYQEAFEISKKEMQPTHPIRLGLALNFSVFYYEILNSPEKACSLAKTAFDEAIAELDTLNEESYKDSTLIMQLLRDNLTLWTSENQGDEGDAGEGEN
# Method: as §1, §2, §3
# [6] = target: T6, 14-3-3 protein gamma (YWHAG) (Homo sapiens, UniProt P61981); experiment: PISA of neutrophil lysates (Data S2); assay type: binding; settings: Comparison NA11_MidT-DMSO_MidT
# T6 construct: endogenous in cells; host or cells: human neutrophil lysate
# T6 sequence (P61981 whole entry): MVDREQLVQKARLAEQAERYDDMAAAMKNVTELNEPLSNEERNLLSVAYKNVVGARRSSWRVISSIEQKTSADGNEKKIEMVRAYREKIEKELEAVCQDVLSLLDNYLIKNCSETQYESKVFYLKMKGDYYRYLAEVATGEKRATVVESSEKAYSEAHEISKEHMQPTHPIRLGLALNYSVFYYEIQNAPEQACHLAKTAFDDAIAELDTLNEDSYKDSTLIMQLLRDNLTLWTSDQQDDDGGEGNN
# Method: as §1, §2, §3
compound,measurement,setting,value
CC(=O)Nc1ccc2c(c1)OCc1cc(-c3ccccc3C#CCCCO)nn1C2 [NA-11],protection of PFKL from thermal inactivation,[1],did not
same,log2FC,[2],0.0948
same,log2FC,[3],-0.04
same,log2FC,[4],-0.18
same,log2FC,[5],-0.07
same,log2FC,[6],0.0136
